# Data as given in patent US20260259169A1, “BETA-LACTAMASE SUBSTRATE COMPOUNDS AND ELECTROCHEMICAL DETECTION METHODS USING THEM” (priority 2023, published 2026).
# How the values were obtained:
# IMP-22 = test: Reactivity with recombinant enzyme, amperometric; assay type: biochemical; conditions: class B metallo-beta-lactamase, protein; CF3 compound 2.4 mM, HMRZ-86 1.2 mM; 10 minutes at 37° C.
# IMP-61 = test: Reactivity with recombinant enzyme, amperometric; assay type: biochemical; conditions: class B metallo-beta-lactamase, protein; CF3 compound 2.4 mM, HMRZ-86 1.2 mM; 10 minutes at 37° C.
# OXA-58 = test: Amperometric detection of beta-lactamase type producing bacteria strains; assay type: cell-based; conditions: 6.0 mM substrate, HMRZ-86 1.2 mM; qualitative
# Protocol: (§1) The possibility to detect different beta-lactamase type producing bacteria strains was also tested. As reference, a reference medium comprising 1.2 mM beta-lactamase substrate compound HMRZ-86 was prepared as well.
# OXA-48 [1] = test: as above; assay type: cell-based; conditions: 6.0 mM substrate, HMRZ-86 1.2 mM; qualitative
# Protocol: as §1
# CTXM = test: as above; assay type: cell-based; conditions: 6.0 mM substrate, HMRZ-86 1.2 mM; qualitative
# Protocol: as §1
# OXA-40 = test: as above; assay type: cell-based; conditions: 6.0 mM substrate, HMRZ-86 1.2 mM; qualitative
# Protocol: as §1
# IMP-11 = test: Reactivity with recombinant enzyme, amperometric; assay type: biochemical; conditions: class B metallo-beta-lactamase, protein; CF3 compound 2.4 mM, HMRZ-86 1.2 mM; 10 minutes at 37° C.
# OXA-48 [2] = test: Reactivity with recombinant enzyme, amperometric; assay type: biochemical; conditions: class D carbapenemase, protein; CF3 compound 2.4 mM, HMRZ-86 1.2 mM; 10 minutes at 37° C.
# KPC-31 = KPC-31 (Klebsiella pneumoniae, UniProt Q9F663, D178Y/H272Y); test: Reactivity with recombinant enzyme, amperometric; assay type: biochemical; conditions: class A carbapenemase, protein, CF3 compound 2.4 mM, HMRZ-86 1.2 mM, 10 minutes at 37° C.
# CTX-M-8 = test: Reactivity with recombinant enzyme, amperometric; assay type: biochemical; conditions: class A ESBL, protein; CF3 compound 2.4 mM, HMRZ-86 1.2 mM; 10 minutes at 37° C.
# [3] = test system: AmpC positive clinical strains; test: Reactivity with AmpC positive clinical strains, amperometric; assay type: cell-based, 11 different species; conditions: 30 strains, colonies in TPTZ buffer, 10 minutes at 37° C.
# Protocol: The reactivities of HMRZ-86 and the CF3 (β)/4-cyanophenyl (R) [formula (I)] compounds for enzymes from Ambler classes C (AmpC cephalosporinases) were analyzed with AmpC positive clinical strains previously characterized by sequencing. These strains correspond to 11 different species, 24 different enzymes and 2 mechanisms of enzyme production [HCASE (hyperproductive) and CASEP (plasmid mediated (See Table 2) Table 2 represents the list of AmpC (Ambler class C cephalosporinases) positive clinical strains tested with the HMRZ-86 and the CF3 (β)/4-cyanophenyl (R) [formula (I)] compounds.
# Colonies from 30 AmpC positive clinical strains collected from solid culture medium were diluted in a standard TPTZ buffer. […] A negative clinical strain and an positive one (CTX-M) were analyzed as […].
# IMP-14 = test: Reactivity with recombinant enzyme, amperometric; assay type: biochemical; conditions: class B metallo-beta-lactamase, protein; CF3 compound 2.4 mM, HMRZ-86 1.2 mM; 10 minutes at 37° C.
# OXA-213 = test: Reactivity with recombinant enzyme, amperometric; assay type: biochemical; conditions: class D carbapenemase, protein; CF3 compound 2.4 mM, HMRZ-86 1.2 mM; 10 minutes at 37° C.
# IMP-4 = test: Reactivity with recombinant enzyme, amperometric; assay type: biochemical; conditions: class B metallo-beta-lactamase, protein; CF3 compound 2.4 mM, HMRZ-86 1.2 mM; 10 minutes at 37° C.
# KPC-33 = KPC-33 (Klebsiella pneumoniae, UniProt Q9F663, D178Y); test: Reactivity with recombinant enzyme, amperometric; assay type: biochemical; conditions: class A carbapenemase, protein; CF3 compound 2.4 mM, HMRZ-86 1.2 mM; 10 minutes at 37° C.
# VIM-13 = test: Reactivity with recombinant enzyme, amperometric; assay type: biochemical; conditions: class B metallo-beta-lactamase, protein; CF3 compound 2.4 mM, HMRZ-86 1.2 mM; 10 minutes at 37° C.
# KPC-3 = KPC-3 (Klebsiella pneumoniae, UniProt Q9F663, H272Y); test: Reactivity with recombinant enzyme, amperometric; assay type: biochemical; conditions: class A carbapenemase, protein; CF3 compound 2.4 mM, HMRZ-86 1.2 mM; 10 minutes at 37° C.
# CTX-M-14 = CTX-M-14 (Escherichia coli, UniProt Q9L5C7); test: Reactivity with recombinant enzyme, amperometric; assay type: biochemical; conditions: class A ESBL, protein; CF3 compound 2.4 mM, HMRZ-86 1.2 mM; 10 minutes at 37° C.
# KPC = KPC (Klebsiella pneumoniae, UniProt Q9F663); test: Amperometric measurement of oxidation current with KPC in TPTZ buffer; assay type: biochemical; conditions: 30 minutes at 37° C.
# Protocol: A medium comprising 1.2 mM of substrate in a succinate buffer of pH 5.5 was prepared for each of the 8 beta-lactamase substrate compounds (7 inventive ones and the HMRZ-86 reference one).
# 4 different samples to be analyzed were prepared, each comprising KPC as beta-lactamase in a standard 2,4,6-tri-2-pyridinyl-1,3,5-triazine (TPTZ) buffer but in different concentrations: 239.4, 59.85, 9.975 and 4.985 ng/ml (ng of KPC per mL of TPTZ buffer). The two first concentrations of KPC aim to determine the capacity of the derivative to detect the presence of beta-lactamase whereas the two lowest concentrations aim to address the limit of detection.
# Each of the […] (in other words 32 combinations) and incubated for 30 minutes at 37° C. Next, an amperometric measurement was performed on all 32 of the incubated mediums, and the oxidation current was determined. The device used was a Metrohm Dropsens and the electrodes were Metrohm Dropsens SCPE 110 electrodes. The oxidation current is the maximum current value measured between 0.1 V and 0.5 V vs. Ag/AgCl.
# To test the impact of the concentration of the beta-lactamase substrate compound on the possibility to detect beta-lactamases, a further medium comprising 2.4 mM of the beta-lactamase substrate compound with R being 2-nitro-4-cyanophenyl was prepared. […] The same four beta-lactamase concentrations as in Example 1 were tested (i.e. the same samples). The incubation and measurement were performed as in Example 1.
# A medium comprising 6.0 mM of each substrate in a succinate buffer of pH 5.5 was prepared. 2 different samples to be analyzed were prepared, each comprising KPC as beta-lactamase type in a standard 2,4,6-tri-2-pyridinyl-1,3,5-triazine (TPTZ) buffer, but in different concentrations: 239.4 ng/ml and 59.85 ng/ml, respectively (ng of KPC per mL of TPTZ buffer). Each of the […] was added to each of the 2 mediums (in other words 6 combinations) and incubated for 30 minutes at 37° C. Next, an amperometric measurement was performed on all 6 of the incubated mediums, and the oxidation current was determined. The equipment used was the same as that of Example 1.
# IMP-1 = IMP-1 (Serratia marcescens, UniProt P52699); test: Reactivity with recombinant enzyme, amperometric; assay type: biochemical; conditions: class B metallo-beta-lactamase, protein; CF3 compound 2.4 mM, HMRZ-86 1.2 mM; 10 minutes at 37° C.
# CTX-M-25 = CTX-M-25 (Escherichia coli, UniProt Q8KSA6); test: Reactivity with recombinant enzyme, amperometric; assay type: biochemical; conditions: class A ESBL, protein; CF3 compound 2.4 mM, HMRZ-86 1.2 mM; 10 minutes at 37° C.
SMILES,reactivity (detection) (IMP-22),reactivity (detection) (IMP-61),detection (oxidation current) (OXA-58),detection (oxidation current) (OXA-48 [1]),detection (oxidation current) (CTXM),detection (oxidation current) (OXA-40),reactivity (detection) (IMP-11),reactivity (detection) (OXA-48 [2]),reactivity (detection) (CTX-M-8),reactivity (detection) (IMP-14),reactivity (detection) (OXA-213),reactivity (detection) (IMP-4),reactivity (detection) (KPC-33),reactivity (detection) (VIM-13),reactivity (detection) (KPC-3),reactivity (detection) (CTX-M-14),reactivity (detection) (IMP-1),reactivity (detection) (CTX-M-25),also measured
N#Cc1ccc(C=CC2=C(C(=O)O)N3C(=O)C(NC(=O)C(F)(F)F)C3SC2)cc1 (stereo not drawn) [CF3],Detected,Detected,capable of detecting,capable of detecting,capable of detecting,capable of detecting,Detected,Detected,Detected,Detected,Detected,Detected,Detected,Detected,Detected,Detected,Detected,Detected,"reactivity (detection) (KPC-31; listed as CF3/4-cyanophenyl): not detected; reactivity (detection) (KPC-31; listed as CF3/4-cyanostyryl): Not detected; AmpC positive clinical strains detected as positive ([3]; substrate 2.4 mM): All; detection of the lowest tested concentration of KPC (KPC; 6.0 mM substrate, KPC 59.85 ng/ml): capable to detect; detection of the highest concentration of KPC (KPC; 6.0 mM substrate, KPC 239.4 ng/ml): capable to detect"
"CC(C)(ON=C(C(=O)N[C@@H]1C(=O)N2C(C(=O)O)=C(C=Cc3ccc([N+](=O)[O-])cc3[N+](=O)[O-])CS[C@H]12)c1csc(N)n1)C(=O)O.O=C(O)C(F)(F)F [HMRZ-86, reference compound]",Detected,Detected,does not detect,capable of detecting,capable of detecting,does not detect,Detected,Detected,Detected,Detected,Not detected,Detected,Detected,Detected,Detected,Detected,Detected,Detected,"reactivity (detection) (KPC-31): Detected; AmpC positive clinical strains detected as positive ([3]; HMRZ-86 1.2 mM): 53.3%; detection of the beta-lactamases (oxidation current): KPC concentrations detected (KPC; 1.2 mM substrate, succinate buffer pH 5.5, KPC 239.4, 59.85, 9.975 and 4.985 ng/ml): all 4 concentrations; detection of the beta-lactamase concentration of 9.975 ng/mL (KPC; 1.2 mM substrate, KPC 9.975 ng/mL): could detect"
